Data reported in patent US12478632B2, “Method for ameliorating progression of renal fibrosis and treating renal fibrosis by 5-(2′,4′-difluorophenyl)-salicylanilide derivatives” (National Defense Medical University, priority 2021, dated 2025).

What was measured:
[1] = system: passively induced IgAN (P-IgAN) mice; assay: passively induced IgAN (P-IgAN) mouse model; assay type: in vivo, C57BL/6 mice
Description: (§1) Two complementary mouse models of IgAN—a passive IgAN (P-IgAN) and a spontaneous IgAN in gddY mice (S-IgAN) were used to examine therapeutic effects of LCC18 on renal conditions of IgAN. […] Eight-week-old female C57BL/6 mice were injected with IgA anti-PC intraperitoneally and PnC intravenously for 14 or 28 consecutive days. Treatment with LCC18 (daily dose of 10 mg/kg body weight) dissolved in polyethylene glycol 400 (PEG 400) (Sigma-Aldrich, St. Louis, MO, USA) via an intraperitoneal (IP) route (P-IgAN+LCC18), and another group of IgAN mice was administered vehicle only (PEG 400) as the disease control group (P-IgAN+Vehicle). Mice were killed at days 14 and 28. Age-matched C57BL/6 mice injected with saline (P-WT+Saline) were used as normal controls; (2) a spontaneous IgAN in gddY (S-IgAN) mice, featuring severe glomerular and tubulointerstitial lesions, characterized by mesangial proliferation, and mesangial matrix expansion. LCC18 (S-IgAN+LCC18) or vehicle (S-IgAN+Vehicle) was administered to mice daily beginning at 8 weeks of age and continuing throughout the present invention. The gddY mice were sacrificed at 32 weeks. Age-matched BALB/c mice served as normal controls (S-WT). All animal experiments were conducted with approval of the Institutional Animal Care and Use Committee of the National Defense Medical Center, Taipei, Taiwan, and were conducted in accordance with NIH Guidelines for the Care and Use of Laboratory Animals.
(§2) For the P-IgAN model, the mice received daily at day 7 after disease induction, either LCC18 (10 mg/kg body weight) (P-IgAN+LCC18) or vehicle (P-IgAN+Vehicle) via IP throughout the study. For the S-IgAN model, LCC18 (S-IgAN+LCC18) or vehicle (S-IgAN+Vehicle) was administered to the mice daily throughout the study via IP, beginning at 8 weeks of age. […] This beneficial effect began on day 21 after disease induction and increased until day 28 when mice were sacrificed (FIG. 1C).

[2] = system: spontaneous IgAN gddY (S-IgAN) mice; assay: spontaneous IgAN in gddY mice (S-IgAN) model; assay type: in vivo
Description: as §1, §2

[3] = system: bone marrow-derived DCs (BMDCs); assay: DC activation (CD80 in CD11c+ cells) by flow cytometry in IgA ICs-stimulated BMDCs; assay type: cell-based; settings: LCC18-treated IgA ICs-stimulated BMDCs; FIG. 3A
Description: (§3) FIG. 3A-3H depict that LCC18 inhibits activation of DCs and systemic immune responses in IgAN model. The fluorescence intensity of CD80^+ in gated CD11c^+ cells (within gated CD11c^+ cells, grey-filled area created by staining with an isotype-matched control antibody) determined by flow cytometry (FIG. 3A). T-cell proliferation measured by [^3H]thymidine (FIG. 3B). BMDCs were incubated for 24 h with IgA ICs and co-cultured with OT-II CD′ T cells pulsed with OVA peptide. P-IgAN mouse model (FIG. 3C, FIG. 3D, FIG. 3E). S-IgAN mouse model (FIG. 3F, FIG. 3G, FIG. 3H). CD3 T-cell proliferation in splenocytes by [^3H]thymidine uptake (FIG. 3C and FIG. 3F). Numbers of CD4^+CD44^hiCD62L^lo (FIG. 3D and FIG. 3G) and CD8^+CD44^hiCD62L^lo-hi (FIG. 3E and FIG. 3H) memory T cells among splenic cells assessed by flow cytometry. WT, wild type. #Not detectable. BMDCs, bone marrow-derived dendritic cells. Bars show the mean±SD of 7 mice per group. *p<0.05, **p<0.01, ***p<0.005, ****p<0.001. ns, no significant difference. Data of FIG. 3B-FIG. 3H were analyzed using ANOVA (with Dunnett's multiple comparisons test).

[4] = system: CD4+ T cells; assay: OVA-specific T cell proliferation assay (BMDCs co-cultured with OT-II T cells, [3H]thymidine); assay type: cell-based; settings: OT-II T cells pulsed with OVA peptide; FIG. 3B
Description: as §3

[5] = system: ASLN mice; assay: accelerated, severe lupus nephritis (ASLN) model; assay type: in vivo, NZB/WF1 mice
Description: To establish ASLN model mice, eight-week-old female NZB/WF1 mice (prior to autoantibody production) were given LPS (Sigma, MO, USA) (0.8 mg/kg body weight) twice a week by intraperitoneal injection. Seven days after the first injection of LPS, seven mice each received either LCC18 (10 mg/kg body weight) or vehicle (polyethylene glycol 400) (Sigma) daily via intraperitoneal injections. Another group of age-matched female NZB/WF1 mice were injected with saline and served as normal controls. All mice were sacrificed 5 weeks after induction of the disease. All animal experiments were performed in compliance with the NIH Guidelines for the Care and Use of Laboratory Animals with approval of the Institutional Animal Care and Use Committee of The National Defense Medical Center, Taipei, Taiwan.
Next, an ASLN model in NZB/W F1 mice, which mimics acute onset of severe LN in human, was validated potential therapeutic effects of LCC18 in the present invention. LN was induced in these mice by intermittent LPS injections to simulate SLE patients following bacterial or viral infections believed to act as environmental triggers. LCC18 was administered daily after the onset of the renal condition in ASLN mice (ASLN+LCC18 mice), while ASLN mice that received vehicle only (ASLN+Vehicle mice) were used as disease control mice.
Urine samples were collected for albuminuria assessment using the ratio of urine albumin/urine creatinine (Cr). Serum blood urea nitrogen (BUN) and Cr levels were determined.
On the other hand, renal tissues were fixed in formalin buffer and paraffin-embedded and stained with hematoxylin and eosin (H&E). Scoring of renal pathology was evaluated.
Levels of anti-dsDNA antibody (Alpha Diagnostic International, TX, USA) were measured using commercial ELISA kits.
Reactive oxygen species (ROS) levels in renal tissues were measured by a lucigenin-enhanced chemiluminescence assay.

[6] = system: UUO mice; assay: unilateral ureteral obstruction (UUO) model mimicking renal tubulointerstitial lesions; assay type: in vivo; settings: days 7 and 14
Description: To establish Unilateral ureteral obstruction (UUO) model for mimicking renal tubulointerstitial lesions (TILs), the mice (8-12 weeks of age) were anesthetized followed by a lateral incision on the back of the mouse. After the left ureter was exposed, it was tied with a silk suture at two points and permanently ligated. Sham-operated mice, which underwent an identical procedure but without ureteric ligation, were used as sham control. After 7 or 14 days, the mice were euthanized, and then, renal tissues, pelvis urine, and renal draining lymph nodes were collected.
LCC18 (10 mg/kg body weight) was administered intraperitoneally 1 day before (preventive group) or 3 days after (therapeutic group) the induction of UUO, or 1 day after the ligation of renal vessels in this model. Diseased mice that received only polyethylene glycol 400 (PEG 400) (Sigma-Aldrich, St. Louis, MO, USA) daily via intraperitoneal injections were used as the vehicle control group. All animal experiments were performed with the approval of the Institutional Animal Care and Use Committee of the National Defense Medical Center, Taiwan, in compliance with the NIH Guide for the Care and Use of Laboratory Animals.
Renal tissues were fixed in 10% buffered formalin, embedded in paraffin, and 3-μm thick sections were cut for haematoxylin and eosin (H&E) staining. Fifty glomeruli were examined in at least two renal tissue sections per slide by light microscopy at ×400 magnification. The percentage of glomeruli showing proliferation, or glomerular sclerosis was determined.
The quantitative analysis of the data obtained from hematoxylin and eosin (H&E) and Masson's trichrome staining of renal histopathological evaluation was used by quantitative imaging software (Pax-it; Paxcam, Villa Park, IL).
Further, in another embodiment, formalin-fixed and paraffin-embedded renal sections were incubated with primary antibodies followed by biotinylated secondary antibodies and avidin-biotin-peroxidase complex (Dako) for IHC staining.

[7] = system: CKDs' subject; assay: summary of effects in kidney and serum of the CKDs' subject; assay type: in vivo
Description: In summary, the LCC18 attenuates glomerular cell proliferation about 15˜35%, attenuates sclerosis and fibrosis, attenuates crescent formation about 40˜90%, attenuates fibrinoid necrosis about 40˜90% in a kidney of the CKDs' subject.
Further, the LCC18 can regulate renal function and albuminuria, downregulate serum levels of blood urea nitrogen (serum levels of BUN) about 50˜60%, serum levels of creatinine (serum levels of Cr) about 30˜40% and serum levels of IgG anti-dsDNA about 60˜70% of the CKDs' subject.

[8] = in a kidney of the CKDs' subject

SMILES: O=c1oc2ccc(-c3ccc(F)cc3F)cc2c(=O)n1-c1cccc(C(F)(F)F)c1 [LCC18, 6-(2,4-difluorophenyl)-3-(3-(trifluoromethyl)phenyl)-2H-benzo[e][1,3]oxazine-2,4(3H)-dione]
- serum levels of BUN ([1]; P-IgAN+LCC18 vs P-IgAN+Vehicle, 10 mg/kg daily IP from day 7, FIG. 1A): Significantly lower
- serum levels of Cr ([1]; P-IgAN+LCC18 vs P-IgAN+Vehicle, 10 mg/kg daily IP from day 7, FIG. 1B): Significantly lower
- increase in number of CD4+CD44hiCD62Llo memory T cells in the spleen ([1]; flow cytometry, FIG. 3D): inhibited
- increase in number of CD8+CD44hiCD62Llo-hi memory T cells in the spleen ([1]; flow cytometry, FIG. 3E): inhibited
- severity of renal lesions (glomerular cell proliferation, sclerosis in glomeruli), H&E ([1]; light microscopy, vs P-IgAN+Vehicle, FIG. 1G-1I): markedly reduced
- ROS levels in renal tissues ([1]; vs P-IgAN+Vehicle, FIG. 2A): Significantly reduced
- T cell proliferation in splenocytes, [3H] thymidine uptake ([1]; vs P-IgAN+Vehicle, FIG. 3C): significantly decreased
- urine levels of albumin (urine albumin/Cr ratio) ([1]; vs P-IgAN+Vehicle, effect began on day 21 and increased until day 28, FIG. 1C): significantly decreased
- serum levels of BUN ([2]; S-IgAN+LCC18 vs S-IgAN+Vehicle, daily IP from 8 weeks of age, FIG. 1D): benefited from treatment
- serum levels of Cr ([2]; S-IgAN+LCC18 vs S-IgAN+Vehicle, daily IP from 8 weeks of age, FIG. 1E): benefited from treatment
- increase in splenic number of CD4+CD44hiCD62Llo memory T cells ([2]; flow cytometry, FIG. 3G): inhibited
- increase in splenic number of CD8+CD44hiCD62Llo-hi memory T cells ([2]; flow cytometry, FIG. 3H): inhibited
- ROS levels in renal tissues ([2]; vs S-IgAN+Vehicle, FIG. 2B): Significantly reduced
- T cell proliferation in splenocytes, [3H] thymidine uptake ([2]; vs S-IgAN+Vehicle, FIG. 3F): significantly decreased
- urine levels of albumin (urine albumin/Cr ratio) ([2]; vs S-IgAN+Vehicle, beginning on week 24, continuing to week 32, FIG. 1F): therapeutic effect was also observed
- fluorescence intensity levels of CD11c+CD80+ cells (activation marker for DCs) [3]: Significantly decreased
- CD4+ T cell proliferation induced by IgA ICs-stimulated BMDCs [4]: inhibited
- elevated serum levels of BUN ([5]; ASLN+LCC18 vs ASLN+Vehicle, 10 mg/kg daily IP, FIG. 4A): significantly inhibited
- elevated serum levels of Cr ([5]; ASLN+LCC18 vs ASLN+Vehicle, 10 mg/kg daily IP, FIG. 4B): significantly inhibited
- serum anti-dsDNA levels ([5]; ELISA, vs ASLN+Vehicle, FIG. 4G): Greatly reduced
- CD4+ T cells (CD4+CD44hiCD62Llo T memory cells) in splenocytes ([5]; flow cytometry, FIG. 5A): inhibited
- CD8+ T cells (CD8+CD44hiCD62Llo-hi T memory cells) in splenocytes ([5]; flow cytometry, FIG. 5B): inhibited
- Treg cell differentiation (CD4+CD25+Foxp3+) in splenocytes ([5]; flow cytometry, FIG. 5C): enhanced
- renal levels of ROS ([5]; lucigenin-enhanced chemiluminescence, vs ASLN+Vehicle, FIG. 6): significantly reduced
- albuminuria (urine albumin/urine Cr) ([5]; vs ASLN+Vehicle, FIG. 4C): greatly reduced
- pathological changes including intrinsic cell proliferation and crescent formation, H&E scoring ([5]; vs ASLN+Vehicle, FIG. 4D-4F): significantly inhibited
- renal fibrotic changes (H&E TILs score, Masson's trichrome fibrotic area) ([6]; 10 mg/kg IP, vs Vehicle+UUO, FIG. 7A-7D): greatly improved
- increased renal expression of Col-III, IHC ([6]; vs UUO+Vehicle, FIG. 8): inhibited
- increased renal expression of p-Smad2/3, IHC ([6]; vs UUO+Vehicle, FIG. 8): inhibited
- downregulation of serum levels of IgG anti-dsDNA ([7]; CKDs' subject): 60˜70%
- downregulation of serum levels of blood urea nitrogen (BUN) ([7]; CKDs' subject): 50˜60%
- downregulation of serum levels of creatinine (Cr) ([7]; CKDs' subject): 30˜40%
- attenuation of crescent formation [7, 8]: 40˜90%
- attenuation of fibrinoid necrosis [7, 8]: 40˜90%
- attenuation of glomerular cell proliferation [7, 8]: 15˜35%
- sclerosis and fibrosis [7, 8]: attenuates
